Measurements from US20020048812A1, “Isolation and in vitro differentiation of conditionally immortalized murine olfactory receptor neurons” (priority 2000, published 2002).
Entries after “also recorded” stand apart in the source; their conditions may differ.

What was measured:
Type in all cases: cell-based, mouse
[1] = test system: 3NA12 cells; assay: Calcium imaging (Fura-2) of odorant responses in clone 3NA12; details: 10 μM single odorant; for Cells responding to each odorant: 1256 cells; for Cells responding to the odorant (increase in intracellular calcium concentration): total of 1256 cells in nineteen experiments, permissive conditions
Protocol: Prior to experiments (2-4 days), cells were plated onto glass coverslips and incubated in permissive conditions. To prepare for stimulation, cells were loaded with Fura-2 ([…]) for 30 minutes at 33° C., washed, and allowed to equilibrate for a further 30 minutes at room temperature. At the beginning of the experiment, cells were washed (W) to determine whether the mechanical disturbance associated with changing solution affected intracellular calcium concentrations.
To determine whether cells from the 3NA12 clone were capable of functional responses to odorants, single odorants were applied to cells loaded with Fura-2. […] Since the onset of odorant receptor expression is at c. E13 in the rat (Strotmann et al., 1995), and each of the components of the signal transduction pathway is present in cells cultured in permissive conditions, cells at permissive conditions were chosen for all subsequent experiments.
Cloned olfactory receptor neurons were plated onto glass coverslips up to one week before imaging. On the day of analysis, the culture medium was removed and replaced with MDV containing 2 μM Fura-2-AM (Molecular Probes, Eugene, Oreg.) and 0.2% Pluronic F-127 (Sigma) dissolved in DMSO. Cells were incubated at appropriate culture temperatures (33° C. or 37° C.) for at least 30 minutes, rinsed and allowed to equilibrate in medium for 30 minutes prior to experiments. Additionally, to ensure that a response could not be induced mechanically, each experiment was started by washing the cells with bath solution in the same manner used in odorant application. For solution exchange, 5 ml of bath solution or odorant test solution was pipeffed manually into the bath (volume, 300 μl) fitted with a continual suction pump. This ensured complete replacement of the bath solution with the incoming solution without altering bath volume. Single odorants were applied to the cloned cell line 3NA12 and mixtures of odorants were applied to primary cultures of mouse olfactory bulb neurons and rat ORNs. […] When single odorants were used, they were taken from Mixture 2. Stock solutions of odorants (20 mM in DMSO) were made up every second day and diluted 1:2000 in bath solution (final concentration, 10 μM each) within seconds of application. The bath solution contained 140 mM NaCl, 5 mM KCl, 2 mM CaCl2, 10 mM HEPES and 10 mM glucose at pH 7.4. Calcium imaging was performed as described previously (Krautwurst et al., 1998; Grynkiewicz et al., 1985), in which ratiometric measurements were obtained using the Zeiss/Attofluor-Ratiovision imaging system on a Zeiss Axiovert 135 microscope fitted with an F Fluor 20×/1.30 lens. Cells were illuminated at 340 nm and 380 nm and the emission at 510 nm was monitored using an intensified CCD camera. The Attofluor-Ratiovision software was used to derive the Ca^2+-dependent ratio. Solutions of CaCl2 (1 mM) and EDTA (1 mM) containing Fura-2 pentasodium salt ([…], Molecular Probes) were used to provide a two-point calibration of the experimental set-up as directed by the instrument manufacturer (Atto Instruments, Rockville, Md.).

[2] = test system: NST+ cells in the heterogeneous culture; assay: Counting NST+ cells (anti-NST labeling) in heterogeneous olfactory cell cultures with growth factors; details: for Effect on the number of NST+ cells (in words): permissive conditions (33° C.)
Protocol: FIG. 2A. Interferon causes a significant, dose-dependent increase in the number of NST+ cells in the heterogeneous culture, with an EC50 of 0.4 U.ml^−1. Cells were incubated at 33° C. and were stained with anti-NST and rhodamine-coupled secondary antibodies seven days after plating. Cell counts were obtained from ten randomly selected areas in each experiment. Data were normalized to the mean number of NST+ cells in the absence of interferon and each point represents the mean ±S.E.M from three experiments.
FIG. 2B. EGF (•) and NGF (□) both have mitogenic effects in permissive conditions over and above the effect of interferon. NST+ cells were counted as described in (A) and were normalized to baseline levels in the presence of interferon (40 U.ml^−1). […] Except for the presence of interferon (40 U.ml^−1), all experimental conditions were as in A.
To determine the optimal conditions for cell survival, growth, differentiation and maturation, cells were cultured in permissive and non-permissive conditions in the presence of interferon, EGF, NGF, BDNF and NT-3. […] The effects of EGF, NGF, BDNF and NT-3 on cell maturation in non-permissive culture conditions were
To keep the amount of expressed TAg to the minimum required for immortalization (Noble et al., 1995), heterozygous offspring from homozygous male H-2K^b-tsA58 transgenic and C57B1 female mice (Charles River Laboratories, Wilmington Mass., and Jackson Laboratory, Bar Harbor, Me., respectively) were used to generate the conditionally immortal neuronal cell culture. Cells were isolated in a procedure modified from a previously established technique (Ronnett et al., 1991). Briefly, post-natal day 1-3 animals were decapitated and the heads were sectioned longitudinally. The olfactory epithelium and nasal septum were removed and placed in an Eppendorf tube containing 500 μl culture medium. The culture medium consisted of Minimum Essential Medium in which the L-valine has been replaced by D-valine (MDV). This was supplemented with 10% fetal bovine serum (FBS), 4 mM glutamine, kanamycin (100 μg.ml^−1), gentamicin (50 U.ml^−1) and amphotericin B (2.5 μg.ml^−1; all from Gibco BRL, Gaithersburg, Md.). The MDV medium was chosen because fibroblasts lack D-amino acid oxidase and the reduction of L-valine inhibits fibroblast survival and growth (Gilbert et al., 1986). Tissue was centrifuged at low speed for two minutes and then most of the medium was removed. The cell pellet was chopped briefly with a pair of fine-point scissors before being resuspended in supplemented cell culture medium. The resultant cell clumps and cell suspension were plated out onto 2- or 4-chamber glass slides (Nunc, Naperville, Ill.) or plastic dishes (Fisher Scientific, Pittsburgh, Pa.). To enhance ORN adhesion, all cell culture materials were pretreated with laminin (0.125 mg.ml^−1 in serum-free media, Collaborative Biomedical Products, Bedford, Mass.) for at least 12 hours, prior to plating. Cells were maintained in culture at 33° C. (the permissive temperature for the SV40 TAg) and, to stimulate transcription of the transgene, the culture medium was supplemented with murine γ-interferon (40 U.ml^−1, Genzyme, Cambridge, Mass.). Provisionally, in permissive conditions, the cell culture medium was supplemented with epidermal growth factor (EGF, 20 ng.ml^−1, Gibco BRL) and 2.5 S nerve growth factor (NGF, 10 ng.ml^−1, Gibco BRL) before thorough characterizations of their effects were made in later experiments.
To determine optimum conditions for cell survival, growth, differentiation or maturation, numerous combinations of culture conditions were tested. These included i) removal of the olfactory epithelium from newborn, 4-week-old, and sexually mature animals, ii) subjecting tissue to digestion by trypsin (Gibco BRL, 0.5 g.l^−1 for 60 minutes at 37° C.), iii) addition of growth factors to the culture medium and iv) the use of diverse culture media. […]

[3] = test system: olfactory marker protein (OMP); assay: OMP expression by Western blot in cells in non-permissive conditions; details: 37° C., heterogeneous cell cultures, 15 μg protein per lane
Protocol: FIG. 2C. Effects of EGF, NGF, BDNF and NT-3 on OMP expression as determined by Western blot. Cells were maintained in non-permissive conditions at 37° C. in the absence of growth factors (C) or in presence of EGF (E), NGF (N), BDNF (B) or NT-3 (3). Samples were isolated from the heterogeneous cell cultures and from olfactory tissue (T), and were separated on a SDS-polyacrylamide gel (15 μg protein per lane). OMP is a 19 kD protein and, in situ, is expressed only in mature olfactory receptor neurons. OMP was not detected in control cells (C), cultured in the absence of growth factors or in cells incubated in the presence of EGF.
assayed by Western blot detection of olfactory marker protein (OMP), a marker of mature olfactory receptor neurons (Margolis, 1988).
Cells were always maintained in permissive culture conditions except when attempts were made to obtain a differentiated phenotype through transgene inactivation. In this case, cells were incubated in non-permissive culture conditions, i.e. at 37° C. in γ-interferon-free media for seven days, before the effects of transgene inactivation were determined. The effects of EGF, NGF, BDNF and NT-3 in promoting cell maturation/differentiation were assessed and, based on those experiments, BDNF and NT-3 were routinely added to the culture medium for cells in non-permissive culture conditions. In both culture environments, the air was kept humidified and contained 5% CO2.
Cells were scraped into a cold isolation buffer containing 20 mM Na(N-tris[hydroxymethyl]methyl-2-aminoethanesulfonic acid) (Na TES), 10 mM mannitol and 1% Triton X-100 at pH 7.4. The isolation buffer was supplemented with phenylmethylsulfonyl fluoride (30 μg.ml^−1), leupeptin (2 μg.ml^−1), benzamidine (16 μg.ml^'1), pepstatin (2 μg.ml^−1), and lima bean trypsin inhibitor (50 μg.ml^−1) to prevent protease activity. After five freeze/thaw cycles, cell extracts were centrifuged at 2,000 g for 5 minutes to pellet nuclei and cell debris. […]

[4] = 33° C., 100 ng.ml^−1, in the presence of 40 U.ml^−1 interferon, normalized to that point

| Molecule | Cells responding to each odorant [1] | Cells responding to the odorant (increase in intracellular calcium concentration) [1] | Effect on the number of NST+ cells (in words) [2] | other results |
| --- | --- | --- | --- | --- |
| CC(=O)c1ccccc1 [acetophenone] | ~1% | 15 cells |  |  |
| CCCCCCC=O [heptaldehyde] | ~1% | 17 cells |  |  |
| EGF: epidermal growth factor (Gibco BRL) |  |  | increased the number of NST+ cells; also recorded: greatest increase of NST+ cells | Normalized # of NST+ Cells ([2]; 33° C., 10 ng.ml^−1, in the presence of 40 U.ml^−1 interferon, normalized to that point): 1.7 ± 0.2 |
| Interferon: murine γ-interferon (Genzyme), stimulates transcription of the transgene |  |  | significant increase | EC50 (increase in number of NST+ cells) ([2]; 33° C., permissive, seven days after plating, sigmoidal curve fit): 0.4 U.ml^−1; Normalized # of NST+ Cells ([2]; 33° C., interferon 40 U.ml^−1, normalized to NST+ cells cultured in the absence of interferon): 2.0 ± 0.2; Normalized # of NST+ Cells ([2]; 37° C., interferon 40 U.ml^−1, normalized to absence of interferon): 1.9 ± 0.1 |
| L-carvone | ~1% | 16 cells |  |  |
| NGF: 2.5 S nerve growth factor (Gibco BRL) (protein, UniProt P01139 122-241, looked up, Beta-nerve growth factor) Beta-nerve growth factor: SSTHPVFHMGEFSVCDSVSVWVGDKTTATDIKGKEVTVLAEVNINNSVFRQYFFETKCRASNPVESGCRGIDSKHWNSYCTTTHTFVKALTTDEKQAAWRFIRIDTACVCVLSRKATRRG |  |  | increased the number of NST+ cells | Normalized # of NST+ Cells [2, 4]: 1.5 ± 0.2; OMP expression detected by Western blot (in words) [3]: barely detectable |
| BDNF: brain-derived neurotrophic factor (Peprotech) (protein, UniProt P23560 129-247, looked up, Neurotrophic factor BDNF) Neurotrophic factor BDNF: HSDPARRGELSVCDSISEWVTAADKKTAVDMSGGTVTVLEKVPVSKGQLKQYFYETKCNPMGYTKEGCRGIDKRHWNSQCRTTQSYVRALTMDSKKRIGWRFIRIDTSCVCTLTIKRGR |  |  | no effect | Normalized # of NST+ Cells [2, 4]: 1.3 ± 0.2; Normalized # of NST+ Cells ([2]; 37° C., 100 ng.ml^−1): 1.3 ± 0.2; OMP expression detected by Western blot (in words) [3]: significant expression of OMP could be observed; also recorded: to a lesser degree, was detected |
